In PubChem BioAssay AID1850 (Southern Research Specialized Biocontainment Screening …, 2009):

System: Salmonella Typhi PhoP-promoter GFP reporter, fluorescence, 4 h
Assay: Inhibition of PhoP regulon, Salmonella typhi GFP reporter cells, confirmation, 4 h (AID 1850)

Structure (SMILES) | IC50 [µM]
Cc1cc(/C=C\c2ccc3cc(N(C)C)ccc3[n+]2C)c(C)n1-c1ccccc1 | 27.8
CCCCNCCCOc1cccc(Cl)c1Cl | 148
CCN(CC(=O)NC(C)(C)C)C(=O)COc1c(Cl)cc(Cl)c2ccc(C)nc12 | 41.4
CCCCOc1ccc(CSC(=N)N)cc1Cl | 77.7
Cc1ccc(NC(=O)COc2ccccc2CNC(C)(C)CC(C)(C)C)cc1 | 91.6
O=C(Nc1c2ccccc2nc2ccccc12)C(Cl)(Cl)Cl | 63.5
O=[N+]([O-])c1cc(F)c2cccnc2c1O | 6.57
COc1cc([N+](=O)[O-])cc(/C=N/NC(=O)C(O)(c2ccccc2)c2ccccc2)c1O | 107
O=[N+]([O-])c1cc([N+](=O)[O-])c2cccnc2c1Oc1ccccc1O | 81.3
CC1CCC(C(C)C)C(OC(=O)C[n+]2cc(-c3ccc(Cl)cc3)n3c2CCC3)C1 (stereo not drawn) | 38
NC1=NC[C@H](c2ccccc2)N1CCCCC1CCCCC1 | 34.8
COc1ccc(CCN2CCC(Nc3nc4ccccc4n3Cc3ccc(F)cc3)CC2)cc1 | 37.7
Cc1ccc(-n2c(C)cc(C3N=C(N)Nc4nc5ccccc5n43)c2C)c(C)c1 (stereo not drawn) | 20.8
